Assay results as given in PubChem BioAssay (NCI).
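Exposure lasted 48 hours, with cells grown in 96-well plates and compounds tested at five concentrations. GI50 is the concentration that inhibits growth by half. TGI is the concentration that stops growth completely.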

Assays:
Experiment in all cases: DTP human tumour cell line panel, 48 h
[1] = tested on: SNB-19 CNS
[2] = tested on: SK-OV-3 ovarian
[3] = tested on: HT29 colon
[4] = tested on: MOLT-4 leukemia
[5] = tested on: NCI-H226 lung
[6] = tested on: SR leukemia
[7] = tested on: NCI/ADR-RES ovarian
[8] = tested on: A498 renal
[9] = tested on: OVCAR-8 ovarian
[10] = tested on: PC-3 prostate
[11] = tested on: RPMI-8226 leukemia
[12] = tested on: HL-60(TB) leukemia
[13] = tested on: SW-620 colon
[14] = tested on: K-562 leukemia
[15] = tested on: MDA-MB-231 breast
[16] = tested on: DU-145 prostate
[17] = tested on: 786-0 renal
[18] = tested on: MALME-3M melanoma
[19] = tested on: ACHN renal
[20] = tested on: UACC-62 melanoma
[21] = tested on: A549 NSCLC
[22] = tested on: UACC-257 melanoma
[23] = tested on: OVCAR-4 ovarian
[24] = tested on: BT-549 breast
[25] = tested on: IGROV1 ovarian
[26] = tested on: CAKI-1 renal
[27] = tested on: NCI-H522 lung
[28] = tested on: NCI-H460 lung
[29] = tested on: SF-268 CNS

C#C[C@]1(O)CC[C@H]2[C@@H]3CC=C4c5sc(Nc6cccc(Cl)n6)nc5CC[C@]4(C)[C@H]3CC[C@@]21C
GI50 [1]: 1170 nM
TGI [1]: 2820 nM
GI50 [2]: 867 nM
TGI [2]: 2710 nM
GI50 [3]: 1430 nM
TGI [3]: 3600 nM
GI50 [4]: 301 nM
TGI [4]: 1170 nM
GI50 [5]: 1600 nM
TGI [5]: 4130 nM
GI50 [6]: 273 nM
TGI [6]: 1020 nM
GI50 [7]: 1820 nM
TGI [7]: 5570 nM
GI50 [8]: 897 nM
TGI [8]: 2250 nM
GI50 [9]: 1460 nM
TGI [9]: 3630 nM
GI50 [10]: 460 nM
TGI [10]: 3110 nM
GI50 [11]: 208 nM
TGI [11]: 618 nM
GI50 [12]: 335 nM
TGI [12]: 1570 nM
GI50 [13]: 1190 nM
TGI [13]: 2570 nM
GI50 [14]: 327 nM
TGI [14]: 1710 nM
GI50 [15]: 1060 nM
TGI [15]: 2690 nM
GI50 [16]: 2170 nM
TGI [16]: 9200 nM
GI50 [17]: 226 nM
TGI [17]: 610 nM
GI50 [18]: 1060 nM
TGI [18]: 2620 nM
GI50 [19]: 856 nM
TGI [19]: 2930 nM
GI50 [20]: 389 nM
TGI [20]: 1500 nM
GI50 [21]: 1200 nM
TGI [21]: 3550 nM
GI50 [22]: 491 nM
TGI [22]: 1820 nM
GI50 [23]: 2110 nM
TGI [23]: 8600 nM
GI50 [24]: 903 nM
TGI [24]: 2360 nM
GI50 [25]: 1610 nM
TGI [25]: 4470 nM
GI50 [26]: 819 nM
TGI [26]: 2450 nM
GI50 [27]: 1710 nM
TGI [27]: 3610 nM
GI50 [28]: 672 nM
TGI [28]: 1930 nM
GI50 [29]: 1540 nM
TGI [29]: 4650 nM
